Measured values from US12077503B2, “Substituted cyclic amides and their use as herbicides” (FMC CORPORATION, priority 2015, dated 2024).

Experiments:
Format in all cases: in vivo
[1] = system: Kochia (Kochia scoparia); assay: Test A preemergence; conditions: Preemergence; for Plant response rating, Kochia: 125 g ai/ha, visual injury after approximately 10 d, 0 to 100 scale where 0 is no effect and 100 is complete control; for Kochia plant response rating (0 to 100 scale, 0 is no effect, 100 is complete control): 500 g ai/ha, visual injury approx. 10 d
Description: (§1) Seeds of plant species selected from barnyardgrass (Echinochloa crus-galli), Kochia (Kochia scoparia), ragweed (common ragweed, Ambrosia elatior), ryegrass, Italian (Italian ryegrass, Lolium multiflorum), crabgrass, large (Digitaria sanguinalis), giant foxtail (Setaria faberii), green foxtail (Setaria viridis), morningglory (Ipomoea spp.), pigweed (Amaranthus retroflexus), velvetleaf (Abutilon theophrasti), wheat (Triticum aestivum), and corn (Zea mays) were planted into a blend of loam soil and sand and treated preemergence with a directed soil spray using test chemicals formulated in anon-phytotoxic solvent mixture which included a surfactant.
(§2) At the same time, plants selected from these crop and weed species and also blackgrass (Alopecurus myosuroides), and Galium (catchweed bedstraw, Galium aparine) were planted in pots containing the same blend of loam soil and sand and treated with postemergence applications of test chemicals formulated in the same manner. Plants ranged in height from 2 to 10 cm and were in the one- to two-leaf stage for the postemergence treatment. Treated plants and untreated controls were maintained in a greenhouse for approximately 10 d, after which time all treated plants were compared to untreated controls and visually evaluated for injury. Plant response ratings, summarized in Table A, are based on a 0 to 100 scale where 0 is no effect and 100 is complete control. A dash (-) response means no test result.

[2] = system: barnyardgrass (Echinochloa crus-galli); assay: Test A preemergence; conditions: Preemergence; for Plant response rating, Barnyardgrass: 125 g ai/ha, visual injury after approximately 10 d, 0 to 100 scale where 0 is no effect and 100 is complete control; for Barnyardgrass plant response rating (0 to 100 scale, 0 is no effect, 100 is complete control): 500 g ai/ha, visual injury approx. 10 d
Description: as §1, §2

[3] = system: giant foxtail (Setaria faberii); assay: Test A preemergence; conditions: Preemergence; for Plant response rating, Foxtail, Giant: 125 g ai/ha, visual injury after approximately 10 d, 0 to 100 scale where 0 is no effect and 100 is complete control; for Foxtail, Giant plant response rating (0 to 100 scale, 0 is no effect, 100 is complete control): 500 g ai/ha, visual injury approx. 10 d
Description: as §1, §2

[4] = system: pigweed (Amaranthus retroflexus); assay: Test A preemergence; conditions: Preemergence; for Plant response rating, Pigweed: 125 g ai/ha, visual injury after approximately 10 d, 0 to 100 scale where 0 is no effect and 100 is complete control; for Pigweed plant response rating (0 to 100 scale, 0 is no effect, 100 is complete control): 500 g ai/ha, visual injury approx. 10 d
Description: as §1, §2

[5] = system: ragweed (common ragweed, Ambrosia elatior); assay: Test A preemergence; conditions: Preemergence; for Plant response rating, Ragweed: 125 g ai/ha, visual injury after approximately 10 d, 0 to 100 scale where 0 is no effect and 100 is complete control; for Ragweed plant response rating (0 to 100 scale, 0 is no effect, 100 is complete control): 500 g ai/ha, visual injury approx. 10 d
Description: as §1, §2

[6] = system: ryegrass, Italian (Italian ryegrass, Lolium multiflorum); assay: Test A preemergence; conditions: Preemergence; for Plant response rating, Ryegrass, Italian: 125 g ai/ha, visual injury after approximately 10 d, 0 to 100 scale where 0 is no effect and 100 is complete control; for Ryegrass, Italian plant response rating (0 to 100 scale, 0 is no effect, 100 is complete control): 500 g ai/ha, visual injury approx. 10 d
Description: as §1, §2

[7] = system: Galium (catchweed bedstraw, Galium aparine); assay: Test A postemergence
Description: as §1, §2

[8] = system: Kochia (Kochia scoparia); assay: Test A postemergence
Description: as §1, §2

[9] = system: barnyardgrass (Echinochloa crus-galli); assay: Test A postemergence; conditions: for Barnyardgrass plant response rating: visual injury rating on 0 to 100 scale (0 no effect, 100 complete control), approx. 10 d
Description: as §1, §2

[10] = system: blackgrass (Alopecurus myosuroides); assay: Test A postemergence; conditions: for Blackgrass plant response rating: visual injury rating on 0 to 100 scale (0 no effect, 100 complete control), approx. 10 d
Description: as §1, §2

[11] = system: corn (Zea mays); assay: Test A postemergence
Description: as §1, §2

[12] = system: giant foxtail (Setaria faberii); assay: Test A postemergence
Description: as §1, §2

[13] = system: pigweed (Amaranthus retroflexus); assay: Test A postemergence
Description: as §1, §2

[14] = system: ragweed (common ragweed, Ambrosia elatior); assay: Test A postemergence
Description: as §1, §2

[15] = system: ryegrass, Italian (Italian ryegrass, Lolium multiflorum); assay: Test A postemergence
Description: as §1, §2

[16] = system: wheat (Triticum aestivum); assay: Test A postemergence
Description: as §1, §2

[17] = system: barnyardgrass (Echinochloa crus-galli); assay: Test B flooded paddy test; conditions: Flood, 0 to 100 scale where 0 is no effect and 100 is complete control, 13 to 15 d
Summary of the method: (§3)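 Visual ratings (0 none to 100 complete control) are relative to untreated plants, taken 13–15 d after treatment in a greenhouse. Test material went straight into floodwater standing 3 cm above the soil, kept constant, on plants at the 2-leaf stage.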

[18] = system: ducksalad (Heteranthera limosa); assay: Test B flooded paddy test; conditions: Flood, 0 to 100 scale where 0 is no effect and 100 is complete control, 13 to 15 d
Summary of the method: as §3

[19] = system: rice (Oryra sativa); assay: Test B flooded paddy test; conditions: Flood, 0 to 100 scale where 0 is no effect and 100 is complete control, 13 to 15 d
Summary of the method: as §3

[20] = system: sedge, umbrella (small-flower umbrella sedge, Cyperus difformis); assay: Test B flooded paddy test; conditions: Flood, 0 to 100 scale where 0 is no effect and 100 is complete control, 13 to 15 d
Summary of the method: as §3

[21] = 125 g ai/ha, postemergence, visual injury rating on 0 to 100 scale (0 no effect, 100 complete control), approx. 10 d
[22] = Postemergence, 500 g ai/ha, 0 to 100 scale where 0 is no effect and 100 is complete control
[23] = 125 g ai/ha, postemergence, visual rating after approx. 10 d, 0 to 100 scale (0 no effect, 100 complete control)

Structure (SMILES)	Plant response rating, Kochia [1]	Kochia plant response rating (0 to 100 scale, 0 is no effect, 100 is complete control) [1]	Plant response rating, Barnyardgrass [2]	Barnyardgrass plant response rating (0 to 100 scale, 0 is no effect, 100 is complete control) [2]	Plant response rating, Foxtail, Giant [3]	Foxtail, Giant plant response rating (0 to 100 scale, 0 is no effect, 100 is complete control) [3]	Plant response rating, Pigweed [4]	Pigweed plant response rating (0 to 100 scale, 0 is no effect, 100 is complete control) [4]	Plant response rating, Ragweed [5]	Ragweed plant response rating (0 to 100 scale, 0 is no effect, 100 is complete control) [5]	Plant response rating, Ryegrass, Italian [6]	Ryegrass, Italian plant response rating (0 to 100 scale, 0 is no effect, 100 is complete control) [6]	Plant response rating, Galium [7, 22]	Plant response rating, Kochia [8, 22]	Plant response rating, Barnyardgrass [9, 22]	Plant response rating, Blackgrass [10, 22]	Plant response rating, Corn [11, 22]	Plant response rating, Foxtail, Giant [12, 22]	Plant response rating, Pigweed [13, 22]	Plant response rating, Ragweed [14, 22]	further results
O=C1NCC(c2ccc(C(F)(F)F)c(F)c2)C1C(=O)Nc1ccccc1F (racemic) [Compound 521]	0	70	90	90	90	90	60	70	40	60	30	50	60	20	90	40	40	90	50	0	Galium plant response rating [7, 21]: 50; Kochia plant response rating [8, 21]: 0; Barnyardgrass plant response rating ([9]; 125 g ai/ha, postemergence): 90; Blackgrass plant response rating ([10]; 125 g ai/ha, postemergence): 30; Corn plant response rating [11, 21]: 30; Foxtail, Giant plant response rating [12, 21]: 70; Pigweed plant response rating [13, 21]: 40; Ragweed plant response rating [14, 21]: 0; Ryegrass, Italian plant response rating [15, 21]: 20; Plant response rating, Ryegrass, Italian [15, 22]: 40; Wheat plant response rating [16, 21]: 20; Plant response rating, Wheat [16, 22]: 50; Plant response rating, Barnyardgrass ([17]; 250 g ai/ha): 40; Plant response rating, Ducksalad ([18]; 250 g ai/ha): 85; Plant response rating, Rice ([19]; 250 g ai/ha): 0; Plant response rating, Sedge, Umbrella ([20]; 250 g ai/ha): 0
O=C1NCC(c2ccc(Oc3ccccc3)cc2)C1C(=O)Nc1ccccc1F (racemic) [Compound 534]	0	0	0	0	0	0	0	0	0	0	0	0	0	0	0	0	0	0	0	0	Plant response rating, Galium [7, 23]: 0; Plant response rating, Kochia [8, 23]: 0; Barnyardgrass plant response rating ([9]; 125 g ai/ha, postemergence): 0; Blackgrass plant response rating ([10]; 125 g ai/ha, postemergence): 0; Plant response rating, Corn [11, 23]: 0; Plant response rating, Foxtail, Giant [12, 23]: 0; Plant response rating, Pigweed [13, 23]: 0; Plant response rating, Ragweed [14, 23]: 0; Plant response rating, Ryegrass, Italian [15, 23]: 0; Plant response rating, Ryegrass, Italian [15, 22]: 0; Plant response rating, Wheat [16, 23]: 0; Plant response rating, Wheat [16, 22]: 0; Plant response rating, Barnyardgrass ([17]; 500 g ai/ha): 0; Plant response rating, Ducksalad ([18]; 500 g ai/ha): 0; Plant response rating, Rice ([19]; 500 g ai/ha): 20; Plant response rating, Sedge, Umbrella ([20]; 500 g ai/ha): 0
COc1c(F)ccc(NC(=O)C2C(=O)NCC2c2cc(F)cc(F)c2)c1F (racemic) [Compound 541]	0	20	90	90	90	90	0	0	0	0	0	20	50	30	90	60	60	90	0	30	Plant response rating, Galium [7, 23]: 30; Plant response rating, Kochia [8, 23]: 0; Barnyardgrass plant response rating ([9]; 125 g ai/ha, postemergence): 90; Blackgrass plant response rating ([10]; 125 g ai/ha, postemergence): 30; Plant response rating, Corn [11, 23]: 0; Plant response rating, Foxtail, Giant [12, 23]: 80; Plant response rating, Pigweed [13, 23]: 0; Plant response rating, Ragweed [14, 23]: 0; Plant response rating, Ryegrass, Italian [15, 23]: 20; Plant response rating, Ryegrass, Italian [15, 22]: 40; Plant response rating, Wheat [16, 23]: 20; Plant response rating, Wheat [16, 22]: 80; Plant response rating, Barnyardgrass ([17]; 250 g ai/ha): 35; Plant response rating, Ducksalad ([18]; 250 g ai/ha): 75; Plant response rating, Rice ([19]; 250 g ai/ha): 0; Plant response rating, Sedge, Umbrella ([20]; 250 g ai/ha): 0
O=C1NCC(c2cc(F)ccc2F)C1C(=O)Nc1ccc(F)cc1F (racemic) [Compound 545]	0	0	20	70	80	90	0	0	0	0	0	0	0	0	80	0	0	70	0	0	Plant response rating, Galium [7, 23]: 0; Plant response rating, Kochia [8, 23]: 0; Plant response rating, Barnyardgrass [9, 23]: 0; Plant response rating, Blackgrass [10, 23]: 0; Plant response rating, Corn [11, 23]: 0; Plant response rating, Foxtail, Giant [12, 23]: 0; Plant response rating, Pigweed [13, 23]: 0; Plant response rating, Ragweed [14, 23]: 0; Plant response rating, Ryegrass, Italian [15, 23]: 0; Plant response rating, Ryegrass, Italian [15, 22]: 0; Plant response rating, Wheat [16, 23]: 0; Plant response rating, Wheat [16, 22]: 0; Plant response rating, Barnyardgrass ([17]; 250 g ai/ha): 0; Plant response rating, Ducksalad ([18]; 250 g ai/ha): 0; Plant response rating, Rice ([19]; 250 g ai/ha): 0; Plant response rating, Sedge, Umbrella ([20]; 250 g ai/ha): 0
